We go through seven compounds from patent US20070004686A1, “Attractant for apple fruit moth and other insect pests of apple” (priority 2002, published 2007).

Each structure is given as a SMILES string. Entries after “also recorded” stand apart in the source; their conditions may differ.

Holding throughout (type): in vivo
For test [1], the system named is codling moth Cydia pomonella. Briefly: Field trap attraction of codling moth. The note with it: traps baited with 10 mg. As for the experimental part: (§1) The compounds eliciting a strong response from antennae of female apple fruit moth and codling moth were then all tested in field traps for attraction of insects. Compounds were applied at a standard dose of 10 mg on red rubber septa, the septa were mounted in Tetra traps with sticky bottoms (Arm et al. 1979).
In a wind tunnel experiment, a blend of farnesol and (E)-beta-farnesene released at 10 ng/min attracted within 2 min 35% of the males tested to the source (N=60).

Test [2] has as its system apple fruit moth Argyresthia conjugella. Kind of test: Field trap attraction of apple fruit moth. The settings on record: for attraction of apple fruit moth females and males to field traps compared with blank: single compounds, 10 mg on red rubber septa in Tetra traps with sticky bottoms; for relative attractiveness for apple fruit moth among compounds and blends tested: field traps, 10 mg on red rubber septa, males and females. On the procedure: as §1
Furthermore, 2-phenyl ethanol was tested in a series of 2-component blends, including all compounds which had shown some attractiveness by themselves.
(§2) Its attractivity can be augmented by blending it with anethole. […] Both sexes of Argyresthia conjugella were attracted. Attraction of females is of importance for monitoring the migration of mated females into orchards. Attraction of females enables population control by mass-trapping, by an attracticide formulation, or by disruption of mating and oviposition behaviour.

The next test concerns other insects. Briefly: Field trapping experiment, species specificity (other insects). The settings on record: conditions tested (region, time of season). On the procedure: as §1, §2
Attraction of Argyresthia conjugella to 2-phenyl ethanol has not been reported, and the blend of 2-phenyl ethanol and anethole has not been described to be attractive for any other species.

As to `COc1ccc(C=O)cc1` [p-anisaldehyde, P-Anisaldehyde], the “attraction of codling moth males to baited traps” value (“attraction of codling moth males” for short) in test [1] was “attracted in significant numbers”. In test [2], the “attraction of apple fruit moth females and males to field traps compared with blank” value (shortened to “attraction … compared with blank”) was “numbers significantly different from blank”.

Regarding `C=CC(C)(O)CCC=C(C)C` (stereo not drawn) [linalool, Linalool], the “attraction … compared with blank” value in test [2] is “numbers significantly different from blank”. `OCCc1ccccc1` [2-phenyl ethanol, 2-Phenyl ethanol]: the “attraction of insects other than Argyresthia conjugella (species specificity)” value with other insects was “no other insects were attracted in significant numbers”. Further, in test [2], the “relative attractiveness for apple fruit moth among compounds and blends tested” value is given as “single most attractive compound”; the “attraction … compared with blank” value was “numbers significantly different from blank; also recorded: attractant for both males and females”.

For `CC/C=C\CC1=C(C)CCC1=O` [cis-jasmone], the “attraction of codling moth males” value in test [1] is given as “attracted in significant numbers”. Take `CC=Cc1ccc(OC)cc1` [anethole, Anethole]: the “attraction of codling moth males” value in test [1] is recorded as “attracted in significant numbers”. In test [2] (listed as Anethole), the “relative attractiveness for apple fruit moth among compounds and blends tested” value is recorded as “only a weak attractant”. Besides, the “attraction … compared with blank” value in test [2] was “numbers significantly different from blank”. As to `CC/C=C\CCOC(=O)C(C)CC` (stereo not drawn) [(Z)3-hexenyl 2-methylbutanoate], in test [1], the “attraction of codling moth males” value is on record as “attracted in significant numbers”. Consider `CC(C)=CCCC(C)=CCCC(C)=CCO` [farnesol, Farnesol], for which the “attraction of codling moth males” value in test [1] is “attracted in significant numbers”.
